Measured values from patent US8420307B2, “Sperm cryoprotective media” (The Jackson Laboratory, priority 2006, dated 2013).
“Also recorded” adds a separate entry of the source.

Assays:
[1] = system: bovine sperm; assay: Bovine sperm post-thaw viability (SYBR 14 / propidium iodide flow cytometry); format: cell-based, Holstein bulls
Protocol: Sperm from three collections from each of 6 different bulls were frozen in the presence of MTG at the concentrations indicated on the x-axes. For each collection, two sets of three straws each were created and analyzed twice for sperm viability. Differences in sperm cell viability among the treatments were determined using analysis of variance on arcsine transformed percents and preplanned comparisons to the control of no MTG using Dunnett's method. Panel A illustrates the mean and standard errors for the 6 bulls while panels B though G illustrate the percent of viable sperm for the individuals. […]
Semen was collected via an artificial vagina from 6 different Holstein bulls over 3 different days. […] Antibiotics were added to the neat semen and initial volume and concentration were determined using a graduated cylinder and spectrophotometry. […]
(§1) For the examination, 6 straws per treatment per collection were thawed in a 37° C. water bath for at least 60 sec. For each treatment within a collection, two pools of semen were created and analyzed by combining the contents of three straws. […] The percent of motile sperm was determined on 4 different fields within each of 2 separate chambers. For viability the sperm samples were diluted 1:100 in PBS and stained with SYBR 14 ([…]) and propidium iodide (12 μM About 10,000 cells were counted using the Partec Flomax Flow Cytometer (Ft. Collins, Colo.).

[2] = system: bull sperm; assay: Bovine sperm post-thaw motility (IVOS); format: cell-based, Holstein bulls; conditions: MTG 0, 100, 500, 1000 or 5000 μM in Triladyl egg yolk extender containing glycerol; 0 and 3 hr
Protocol: Semen was collected via an artificial vagina from 6 different Holstein bulls over 3 different days. The bulls were selected such that three produce sperm with good consistent freezing quality and three produce sperm that respond to cryopreservation with poorer consistency. Antibiotics were added to the neat semen and initial volume and concentration were determined using a graduated cylinder and spectrophotometry. From each collection, 5 different 500 μL aliquots of semen were extended with 1.5 mL of Triladyl egg yolk extender (Minitube; Verona, Wis.) containing glycerol. Subsequently, 2 mL of the same extender containing no MTG, 200, 1000, 2000 or 10,000 μM MTG was added to the extended semen to yield the final concentrations for MTG of 0, 100, 500, 1000 or 5000 μM. […]
as §1

## OCC(O)CS (stereo not drawn) [MTG, monothioglycerol]
[1]; MTG 0, 100, 500, 1000 or 5000 μM in egg yolk extender containing glycerol, 6 bulls, FIG. 5
  post-thaw viability of bovine sperm: not negatively influenced; also recorded: enhances post-thaw viability
[1]; bovine sperm, 3 bulls with slight effect
  increase of viability: slight effect
[2]
  overall post-thaw motility of bull sperm: no ill effects
